Results: patent US7354904B2, “Bacteriocin inducer peptides” (priority 2005, dated 2008)

Tested on: Enterococcus faecium LWP 50-52
Experiment: Influence of signal peptide on bacteriocin 50-52 production, flask culture (fraction protein at 215 nm, activity by spot-test against C. jejuni and S. enteritidis)
Format: cell-based
[1] = LWP 50-52 + LWP 320, peptide 0.1 mg/ml added after about 6 hours
[2] = LWP 50-52, no inducer, peptide 0.001 mg/ml
[3] = LWP 50-52, no inducer, peptide 0.001 mg/ml added after about 2 hours
[4] = LWP 50-52, no inducer, peptide 0.001 mg/ml added after about 4 hours
[5] = LWP 50-52, no inducer, peptide 0.001 mg/ml added after about 6 hours
[6] = LWP 50-52, no inducer, peptide 0.01 mg.ml added after about 4 hours
[7] = LWP 50-52, no inducer, peptide 0.01 mg.ml added after about 6 hours
[8] = LWP 50-52, no inducer, peptide 0.01 mg/ml
[9] = LWP 50-52, no inducer, peptide 0.01 mg/ml added after about 2 hours
[10] = LWP 50-52, no inducer, peptide 0.1 mg/ml
[11] = LWP 50-52, no inducer, peptide 0.1 mg/ml added after about 2 hours
[12] = LWP 50-52, no inducer, peptide 0.10 mg/ml added after about 4 hours
[13] = LWP 50-52, no inducer, peptide 0.10 mg/ml added after about 6 hours

TNVTKSWWVLAGCNQVVASNCNCGNVKGLT (listed as Enterococcus faecium) [LWP 50-52 Signal Peptide, signal peptide isolated from Enterococcus faecium LWP 50-52, stimulates bacteriocin 50-52 production]
Activity [1]: 819,200 AU/ml
Protein Concentration [1]: 0.25 mg/mL
Protein increase vs. Control [1]: 1
Specific Activity [1]: 3,276,800 AU/mg
mg protein/liter [1]: 82.5 mg protein/liter
Activity [2]: 819,200 AU/ml
Protein Concentration [2]: 0.25 mg/mL
Protein increase vs. Control [2]: 1
Specific Activity [2]: 3,276,800 AU/mg
mg protein/liter [2]: 82.5 mg protein/liter
Activity [3]: 819,200 AU/ml
Protein Concentration [3]: 0.25 mg/mL
Protein increase vs. Control [3]: 1
Specific Activity [3]: 3,276,800 AU/mg
mg protein/liter [3]: 82.5 mg protein/liter
Activity [4]: 819,200 AU/ml
Protein Concentration [4]: 0.25 mg/mL
Protein increase vs. Control [4]: 1
Specific Activity [4]: 3,276,800 AU/mg
mg protein/liter [4]: 82.5 mg protein/liter
Activity [5]: 819,200 AU/ml
Protein Concentration [5]: 0.25 mg/mL
Protein increase vs. Control [5]: 1
Specific Activity [5]: 3,276,800 AU/mg
mg protein/liter [5]: 82.5 mg protein/liter
Activity [6]: 819,200 AU/ml
Protein Concentration [6]: 0.27 mg/mL
Protein increase vs. Control [6]: 1.08
Specific Activity [6]: 3,034,074 AU/mg
mg protein/liter [6]: 89.1 mg protein/liter
Activity [7]: 819,200 AU/ml
Protein Concentration [7]: 0.27 mg/mL
Protein increase vs. Control [7]: 1.08
Specific Activity [7]: 3,034,074 AU/mg
mg protein/liter [7]: 89.1 mg protein/liter
Activity [8]: 819,200 AU/ml
Protein Concentration [8]: 0.27 mg/mL
Protein increase vs. Control [8]: 1.08
Specific Activity [8]: 3,034,074 AU/mg
mg protein/liter [8]: 89.1 mg protein/liter
Activity [9]: 819,200 AU/ml
Protein Concentration [9]: 0.31 mg/mL
Protein increase vs. Control [9]: 1.24
Specific Activity [9]: 2,642,580 AU/mg
mg protein/liter [9]: 102.3 mg protein/liter
Activity [10]: 819,200 AU/ml
Protein Concentration [10]: 0.25 mg/mL
Protein increase vs. Control [10]: 1
Specific Activity [10]: 3,276,800 AU/mg
mg protein/liter [10]: 82.5 mg protein/liter
Activity [11]: 819,200 AU/ml
Protein Concentration [11]: 0.27 mg/mL
Protein increase vs. Control [11]: 1.08
Specific Activity [11]: 3,034,074 AU/mg
mg protein/liter [11]: 89.1 mg protein/liter
Activity [12]: 819,200 AU/ml
Protein Concentration [12]: 0.27 mg/mL
Protein increase vs. Control [12]: 1.08
Specific Activity [12]: 3,034,074 AU/mg
mg protein/liter [12]: 89.1 mg protein/liter
Activity [13]: 819,200 AU/ml
Protein Concentration [13]: 0.26 mg/mL
Protein increase vs. Control [13]: 1.04
Specific Activity [13]: 3,150,769 AU/mg
mg protein/liter [13]: 85.8 mg protein/liter
